From patent US5164390A, “6-substituted purinyl piperazine derivatives” (Ortho Pharmaceutical Corporation, priority 1991, dated 1992)
Read-outs that look alike come from different tables or passages of the source.

System: Adult mongrel dogs
Test: Cardiotonic activity: hemodynamic and inotropic responses (MAP, HR, dP/dt, contractile force) in anesthetized dogs, iv infusion
Format: in vivo, mongrel dog
Conditions: Canis lupus familiaris
Experimental: Adult mongrel dogs were anesthetized with sodium pentobarbital (45 mg/kg, i.p.) and artificially respired. Mean arterial pressure (MAP) was recorded from a cannulated femoral artery and drugs were infused into a cannulated femoral vein. The arterial pressure pulse was used to trigger a cardiotachometer for determination of heart rate (HR). Left ventricular pressure was measured with a Millar catheter and dP/dtmax was derived. A right thoracotomy was performed and myocardial contractile force (CF) was measured with a Walton Brodie strain gauge sutured to the right ventricle. The ventricular muscle was stretched to produce a baseline tension of 100 g. A standard dose of dopamine (10-15 ug/kg/min for 3 min) was administered to determine myocardial responsiveness to inotropic stimulation.
Test compounds were solubilized in a small volume of DMF diluted to a final concentration of 10% in physiological saline. Alternatively, where possible, a soluble hydrochloride salt was prepared by addition of 0.1N HCl diluted in physiological saline. Vehicles were tested in appropriate volumes and found to exert less than a 5% effect on contractile force. For iv studies, compounds were administered by infusion pump (one drug per animal) at rates of 0.58-2.2 mL/min in three to four stepwise increasing doses. Each dose was infused over 5 min immediately after the effect of the previous dose peaked. MAP, HR, dP/dtmax and CF responses were continuously monitored on a Beckman or Gould recorder and expressed as a percent change from pre-drug control values vs. the cumulative dose of drug administered. For these studies, n represents the number of test animals used.
Quantitation of the inotropic potency was obtained by calculation of the contractile force (CF) ED50. This was defined as the dose of compound that produced a 50% increase above baseline in myocardial contractile force. The value was obtained from three to four point dose-response curves using either graphical estimation (n<3) or linear regression analysis (n≥3). Numbers in parentheses are number of animals screened.

[1] = Table 1, 1.875 mg/kg iv, cumulative dose, read-out: CF (myocardial contractile force), % from Control
[2] = Table 1, 1.875 mg/kg iv, cumulative dose, read-out: HR (heart rate), % from Control
[3] = Table 1, 1.875 mg/kg iv, cumulative dose, read-out: MAP (mean arterial pressure), % from Control
[4] = Table 1, 1.875 mg/kg iv, cumulative dose, read-out: dPdt (left ventricular dP/dtmax), % from Control

| Structure (SMILES) | change in vivo at 1.875 mg/kg (Table 2, 1.875 mpk iv, read-out: CF (myocardial contractile force), percent change from pre-drug control) [%] | change in vivo at 1.875 mg/kg (Table 2, 1.875 mpk iv, read-out: HR (heart rate), percent change from pre-drug control) [%] | change in vivo at 1.875 mg/kg (Table 2, 1.875 mpk iv, read-out: MAP (mean arterial pressure), percent change from pre-drug control) [%] | change in vivo at 1.875 mg/kg (Table 2, 1.875 mpk iv, read-out: dP/dt (left ventricular dP/dtmax), percent change from pre-drug control) [%] | change in vivo at 1.875 mg/kg [1] [%] | change in vivo at 1.875 mg/kg [2] [%] | change in vivo at 1.875 mg/kg [3] [%] | change in vivo at 1.875 mg/kg [4] [%] |
| --- | --- | --- | --- | --- | --- | --- | --- | --- |
| OC(CSc1ncnc2[nH]c(-c3ccccc3)nc12)CN1CCN(C(c2ccc(F)cc2)c2ccc(F)cc2)CC1 (stereo not drawn) [Example 24, 6-[1-[1-[Bis(4-fluorophenyl)methyl]piperazin-4-yl]-2-hydroxy-3-propanylthio]-8-phenylpurine.cndot.1/3Hydrate] | 12 | 4 | -3 | 5 | – | – | – | – |
| OC(COc1ncnc2c1ncn2C1CCCCO1)CN1CCN(C(c2ccccc2)c2ccccc2)CC1 (stereo not drawn) [Example 19] | – | – | – | – | 43 | 3 | 2 | 19 |
| OC(COc1ncnc2nc[nH]c12)CN1CCN(C(c2ccccc2)c2ccccc2)CC1 (stereo not drawn) [Example 20, 6-[3-[4-(Diphenylmethyl)piperazin-1-yl]-2-hydroxypropoxy]-purine] | – | – | – | – | 66 | 2 | 4 | 36 |
